Experimental data taken from ChEMBL document CHEMBL4219183, “Novel purine benzimidazoles as antimicrobial agents by regulating ROS generation and targeting clinically resistant Staphylococcus aureus DNA groove” (Bioorg Med Chem Lett, 2018).
In brackets after ≈: the same amount, converted by molar mass. Activity calls are given as the source filed them. No cut-off for these calls is given here.

Columns and labels:
Staphylococcus aureus [1] = assay: Antibacterial activity against methicillin-resistant Staphylococcus aureus N315 after 24 hrs by two fold serial dilution method; type: functional; conditions: N315, 24 h
Enterococcus faecalis = assay: Antibacterial activity against Enterococcus faecalis after 24 hrs by two fold serial dilution method; type: functional
Staphylococcus aureus [2] = assay: Antibacterial activity against Staphylococcus aureus after 24 hrs by two fold serial dilution method; type: functional
Staphylococcus aureus [3] = assay: Antibacterial activity against Staphylococcus aureus ATCC 25923 after 24 hrs by two fold serial dilution method; type: functional; conditions: ATCC 25923, 24 h
Staphylococcus aureus [4] = assay: Antibacterial activity against Staphylococcus aureus ATCC 29213 after 24 hrs by two fold serial dilution method; type: functional; conditions: ATCC 29213, 24 h
Klebsiella pneumoniae = assay: Antibacterial activity against Klebsiella pneumoniae after 24 hrs by two fold serial dilution method; type: functional
Escherichia coli [5] = assay: Antibacterial activity against Escherichia coli after 24 hrs by two fold serial dilution method; type: functional
Pseudomonas aeruginosa [6] = assay: Antibacterial activity against Pseudomonas aeruginosa after 24 hrs by two fold serial dilution method; type: functional
Acinetobacter baumannii = assay: Antibacterial activity against Acinetobacter baumannii after 24 hrs by two fold serial dilution method; type: functional
Pseudomonas aeruginosa [7] = assay: Antibacterial activity against Pseudomonas aeruginosa ATCC 27853 after 24 hrs by two fold serial dilution method; type: functional; conditions: ATCC 27853, 24 h
Escherichia coli [8] = assay: Antibacterial activity against Escherichia coli ATCC 25922 after 24 hrs by two fold serial dilution method; type: functional; conditions: ATCC 25922, 24 h
Candida albicans [9] = assay: Antifungal activity against Candida albicans after 24 hrs by two fold serial dilution method; type: functional
Candida tropicalis = assay: Antifungal activity against Candida tropicalis after 24 hrs by two fold serial dilution method; type: functional
Aspergillus fumigatus = assay: Antifungal activity against Aspergillus fumigatus after 24 hrs by two fold serial dilution method; type: functional
Candida albicans [10] = assay: Antifungal activity against Candida albicans ATCC 90023 after 24 hrs by two fold serial dilution method; type: functional; conditions: ATCC 90023, 24 h
Candida parapsilosis = assay: Antifungal activity against Candida parapsilosis ATCC 22019 after 24 hrs by two fold serial dilution method; type: functional; conditions: ATCC 22019, 24 h
DNA [11] = assay: Binding affinity to Staphylococcus aureus genomic DNA assessed as hyperchromic shift at 2.5 to 20 x 10^-6mol/L by UV absorption spectral analysis; type: nucleic-acid assay
Staphylococcus aureus [12] = assay: Potency index, ratio of norfloxacin MIC to compound MIC for Staphylococcus aureus; type: functional
[13] = Cytotoxicity against human A549 cells assessed as cell viability at <500 ug/ml after 48 hrs by MTT assay relative to control; type: cell-based; conditions: read-out: Activity
HeLa = assay: Induction of ROS generation in human HeLa cells at 6.25 to 50 uM by DCFH-DA staining based fluorescence microscopic method; type: cell-based
DNA [14] = assay: Binding affinity to Staphylococcus aureus genomic DNA by UV absorption spectral analysis; type: nucleic-acid assay
DNA [15] = assay: Inhibition of neutral red binding to Staphylococcus aureus genomic DNA up to 20 x 10^-6mol/L by UV absorption spectral analysis; type: nucleic-acid assay
DNA [16] = assay: Binding affinity to Staphylococcus aureus genomic DNA at pH 7.4 at 294 K by fluorescence quenching analysis; type: nucleic-acid assay
DNA [17] = assay: Binding affinity to Staphylococcus aureus genomic DNA at pH 7.4 at 304 K by fluorescence quenching analysis; type: nucleic-acid assay
DNA [18] = assay: Binding affinity to Staphylococcus aureus genomic DNA at pH 7.4 at 314 K by fluorescence quenching analysis; type: nucleic-acid assay
DNA [19] = assay: Binding affinity to Staphylococcus aureus genomic DNA assessed as modified Stern-Volmer quenching constant at pH 7.4 at 294 K by fluorescence quenching analysis; type: nucleic-acid assay
DNA [20] = assay: Binding affinity to Staphylococcus aureus genomic DNA assessed as modified Stern-Volmer quenching constant at pH 7.4 at 304 K by fluorescence quenching analysis; type: nucleic-acid assay
DNA [21] = assay: Binding affinity to Staphylococcus aureus genomic DNA assessed as modified Stern-Volmer quenching constant at pH 7.4 at 314 K by fluorescence quenching analysis; type: nucleic-acid assay
DNA [22] = assay: Binding affinity to Staphylococcus aureus genomic DNA assessed as iodide quenching constant at pH 7.4 by fluorescence quenching analysis (reference value: 28.74 L/mol); type: nucleic-acid assay
DNA [23] = assay: Binding affinity to Staphylococcus aureus genomic DNA assessed as change in enthalpy at 304 K; type: nucleic-acid assay
DNA [24] = assay: Binding affinity to Staphylococcus aureus genomic DNA assessed as gibbs free energy change at 294 K; type: nucleic-acid assay
DNA [25] = assay: Binding affinity to Staphylococcus aureus genomic DNA assessed as gibbs free energy change at 304 K; type: nucleic-acid assay
DNA [26] = assay: Binding affinity to Staphylococcus aureus genomic DNA assessed as gibbs free energy change at 314 K; type: nucleic-acid assay
DNA [27] = assay: Binding affinity to Staphylococcus aureus genomic DNA assessed as change in entropy at 304 K; type: nucleic-acid assay

| SMILES | MIC (Staphylococcus aureus [1]) [µg/mL] | MIC (Enterococcus faecalis) [µg/mL] | MIC (Staphylococcus aureus [2]) [µg/mL] | MIC (Staphylococcus aureus [3]) [µg/mL] | MIC (Staphylococcus aureus [4]) [µg/mL] | MIC (Klebsiella pneumoniae) [µg/mL] | MIC (Escherichia coli [5]) [µg/mL] | MIC (Pseudomonas aeruginosa [6]) [µg/mL] | MIC (Acinetobacter baumannii) [µg/mL] | MIC (Pseudomonas aeruginosa [7]) [µg/mL] | MIC (Escherichia coli [8]) [µg/mL] | MIC80 (Candida albicans [9]) [µg/mL] | MIC80 (Candida tropicalis) [µg/mL] | MIC80 (Aspergillus fumigatus) [µg/mL] | MIC80 (Candida albicans [10]) [µg/mL] | MIC80 (Candida parapsilosis) [µg/mL] | also measured |
| --- | --- | --- | --- | --- | --- | --- | --- | --- | --- | --- | --- | --- | --- | --- | --- | --- | --- |
| C=CCn1c(Cn2cnc3c(N4CCOCC4)ncnc32)nc2ccccc21 | 512 (≈ 1360 µM) | 128 (≈ 341 µM) | 256 (≈ 682 µM) | 256 (≈ 682 µM) | 128 (≈ 341 µM) | 128 (≈ 341 µM) | 256 (≈ 682 µM) | 256 (≈ 682 µM) | 128 (≈ 341 µM) | 128 (≈ 341 µM) | 256 (≈ 682 µM) | 512 (≈ 1360 µM) | 256 (≈ 682 µM) | 128 (≈ 341 µM) | 128 (≈ 341 µM) | 32 (≈ 85.2 µM) | – |
| c1nc(N2CCOCC2)c2nc[nH]c2n1 | 512 (≈ 2490 µM) | 128 (≈ 624 µM) | 256 (≈ 1250 µM) | 512 (≈ 2490 µM) | 512 (≈ 2490 µM) | 128 (≈ 624 µM) | 256 (≈ 1250 µM) | 256 (≈ 1250 µM) | 256 (≈ 1250 µM) | 256 (≈ 1250 µM) | 256 (≈ 1250 µM) | 256 (≈ 1250 µM) | 256 (≈ 1250 µM) | 256 (≈ 1250 µM) | 256 (≈ 1250 µM) | 512 (≈ 2490 µM) | – |
| CCCCCCCCCCCCCCCCn1c(Cn2cnc3c(N4CCOCC4)ncnc32)nc2ccccc21 | 512 (≈ 915 µM) | 32 (≈ 57.2 µM) | 64 (≈ 114 µM) | 256 (≈ 457 µM) | 256 (≈ 457 µM) | 128 (≈ 229 µM) | 512 (≈ 915 µM) | 512 (≈ 915 µM) | 256 (≈ 457 µM) | 256 (≈ 457 µM) | 256 (≈ 457 µM) | 128 (≈ 229 µM) | 128 (≈ 229 µM) | 256 (≈ 457 µM) | 512 (≈ 915 µM) | 128 (≈ 229 µM) | – |
| CCCCCCn1c(Cn2cnc3c(N4CCOCC4)ncnc32)nc2ccccc21 | 16 (≈ 38.1 µM) | 128 (≈ 305 µM) | 4 (≈ 9.53 µM) | 64 (≈ 153 µM) | 512 (≈ 1220 µM) | 64 (≈ 153 µM) | 128 (≈ 305 µM) | 64 (≈ 153 µM) | 64 (≈ 153 µM) | 16 (≈ 38.1 µM) | 8 (≈ 19.1 µM) | 32 (≈ 76.3 µM) | 64 (≈ 153 µM) | 128 (≈ 305 µM) | 32 (≈ 76.3 µM) | 128 (≈ 305 µM) | Activity (DNA [11]): Active; Ratio (Staphylococcus aureus [12]): 16; viability at 48 h [13]: > 85%; Activity (HeLa): Non-Toxic; K (DNA [14]): 4.92 ×10⁵ L/mol; inhibition (DNA [15]): inactive; KSV (DNA [16]): 1.87 ×10⁴ L/mol; KSV (DNA [17]): 1.52 ×10⁴ L/mol; KSV (DNA [18]): 1.21 ×10⁴ L/mol; Ka (DNA [19]): 3.76 ×10⁴ L/mol; Ka (DNA [20]): 2.33 ×10⁴ L/mol; Ka (DNA [21]): 1.73 ×10⁴ L/mol; KSV (DNA [22]): 78.2 L/mol; deltaH (DNA [23]): -7.12 kcal/mol; deltaG (DNA [24]): -6.16 kcal/mol; deltaG (DNA [25]): -6.13 kcal/mol; deltaG (DNA [26]): -6.09 kcal/mol; deltaS (DNA [27]): -13.6 J/mol.K |
| CC(=O)c1nc2ccccc2n1CCn1cnc2c(N3CCOCC3)ncnc21 | 256 (≈ 654 µM) | 64 (≈ 164 µM) | 32 (≈ 81.8 µM) | 64 (≈ 164 µM) | 128 (≈ 327 µM) | 32 (≈ 81.8 µM) | 128 (≈ 327 µM) | 8 (≈ 20.4 µM) | 64 (≈ 164 µM) | 32 (≈ 81.8 µM) | 128 (≈ 327 µM) | 256 (≈ 654 µM) | 256 (≈ 654 µM) | 128 (≈ 327 µM) | 128 (≈ 327 µM) | 512 (≈ 1310 µM) | – |
